For orientation: IC50 means the concentration at which inhibition is half-maximal. The term inhibition denotes the drop in the measured response relative to a control, in per cent.

Data set [1] deals with PANC-1 pancreatic cancer cells. The data set is described as follows: MTT assay for cell viability, PANC-1 pancreatic cancer cells. The class given is cell-based. Conditions: Homo sapiens; PANC-1, MTT, 48 hours. The procedure:
(§1) The A375 human malignant melanoma cells, PANC-1 pancreatic cancer cells and HEK293 human embryonic kidney cells were cultured in media containing 89% DMEM, 10% FBS and 1% penicillin-streptomycin. Once confluent, the cells were washed thrice with 1×PBS and detached from T75 flasks by incubating the cells with 2 mL trypsin-EDTA for 5-10 minutes at 37° C. 2 mL DMEM was added to the cells to stop the reaction of trypsin-EDTA. […] The intensity of this colour is proportional to the state of metabolic activity in the cells and therefore the extent of cell viability. MTT is therefore used to measure the extent to which the drugs are toxic. PANC-1 pancreatic cancer, A375 malignant melanoma and HEK293 human embryonic kidney cell lines were cultured to confluence in CytoOne T75 vented cell culture flasks (USA Scientific). The cells were counted using a haemocytometer and passaged/plated into CytoOne 96 well plates (USA Scientific). […] Absorbance readings were measured at 570 nm using a 96 well plate reader. The percentage of viable cells in treated and untreated cultures was calculated and compared. […] The cell viability data was expressed as the mean±standard deviation (SD) from three independent experiments. The IC50 values were calculated using the non-linear regression test which briefly involves conversion of the ezetimibe concentrations to log values. […]
For orientation: Tetrazolium dyes change colour on reduction, which living cells bring about.

The conditions of data set [2]: literature, in words, cited from earlier work.
The conditions of data set [3]: cited from earlier work.
The conditions of data set [4]: literature, in words, cited from earlier work. The source holds these as a separate data set.
Data set [5] concerns HEK293 human embryonic kidney cells. The data set is described as follows: MTT assay for cell viability, HEK293 normal embryonic kidney cells. Format: cell-based. Conditions: 0.1-200 μM, 48 hours. How it is done: as §1
The test system of data set [6] is A375 human malignant melanoma cells. Description: MTT assay for cell viability, A375 malignant melanoma cells. Format: cell-based. Particulars: for IC50: A375, MTT, 48 hours, nonlinear regression, read-out: IC50, growth inhibition of melanoma cell line. How it is done:
The A375 human malignant melanoma cells, PANC-1 pancreatic cancer cells and HEK293 human embryonic kidney cells were cultured in media containing 89% DMEM, 10% FBS and 1% penicillin-streptomycin. Once confluent, the cells were washed thrice with 1×PBS and detached from T75 flasks by incubating the cells with 2 mL trypsin-EDTA for 5-10 minutes at 37° C. 2 mL DMEM was added to the cells to stop the reaction of trypsin-EDTA. […] The intensity of this colour is proportional to the state of metabolic activity in the cells and therefore the extent of cell viability. MTT is therefore used to measure the extent to which the drugs are toxic. PANC-1 pancreatic cancer, A375 malignant melanoma and HEK293 human embryonic kidney cell lines were cultured to confluence in CytoOne T75 vented cell culture flasks (USA Scientific). The cells were counted using a haemocytometer and passaged/plated into CytoOne 96 well plates (USA Scientific). Approximately 5 000 cells per 200 μl were plated. The plates were incubated overnight to allow for attachment. The medium was removed after overnight incubation. […] After incubation for 48 hours, 20 μL of MTT reagent was added and incubated for 4 hours. Approximately 200 μL of the solubilisation reagent was added to each well and incubated overnight. The MTT assay was performed using the cell proliferation kit I (MTT) (Roche, Switzerland) by following the instructions in the manual. Absorbance readings were measured at 570 nm using a 96 well plate reader. The percentage of viable cells in treated and untreated cultures was calculated and compared. All statistical analyses were performed using Prism GraphPad Software (San Diego, Calif. 92108, USA). The cell viability data was expressed as the mean±standard deviation (SD) from three independent experiments. The IC50 values were calculated using the non-linear regression test which briefly involves conversion of the ezetimibe concentrations to log values. The log values were matched with their corresponding cell viability percentages. The one sample T-test and Wilcoxon Signed Rank Test were used to determine the statistical difference between the cell viability percentage in treated cells.

Data set [7] deals with cholesterol absorption. Particulars: reported experiments with the initial drug lead; cited from earlier work.
Data set [8] concerns the target Mdm2 (Homo sapiens, UniProt Q00987). Particulars: Warner et al. 2012; cited from earlier work.
Setting [9] is: ezetimibe and/or the glucuronide metabolite.

Molecules are shown by their SMILES. “Also recorded” adds a separate entry of the source. Read-outs that look alike come from different tables or passages of the source.

Chain of Mdm2 (Q00987 whole entry): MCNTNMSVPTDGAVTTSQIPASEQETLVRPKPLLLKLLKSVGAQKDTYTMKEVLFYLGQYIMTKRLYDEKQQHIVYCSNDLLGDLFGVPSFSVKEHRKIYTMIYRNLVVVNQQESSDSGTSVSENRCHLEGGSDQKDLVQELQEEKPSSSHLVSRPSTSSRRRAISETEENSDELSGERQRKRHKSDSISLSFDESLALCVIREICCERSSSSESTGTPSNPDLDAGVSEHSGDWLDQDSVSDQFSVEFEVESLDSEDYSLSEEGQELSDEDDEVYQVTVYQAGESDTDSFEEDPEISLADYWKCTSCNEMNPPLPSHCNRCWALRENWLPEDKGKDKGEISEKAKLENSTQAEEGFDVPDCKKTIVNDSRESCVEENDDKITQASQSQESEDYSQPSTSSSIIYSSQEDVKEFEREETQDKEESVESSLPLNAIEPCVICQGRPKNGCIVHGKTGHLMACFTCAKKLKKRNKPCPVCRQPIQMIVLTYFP

As for `O=C1[C@H](CC[C@H](O)c2ccc(F)cc2)[C@@H](c2ccc(O)cc2)N1c1ccc(F)cc1` [Ezetimibe], the IC50 in data set [1] was determined as 71.6 µM; in data set [6] it was 30.7 µM; in data set [6] (Homo sapiens, A-375, 48 h), 30.7 µM. Besides, the “Aqueous Solubility” value was “Poor” in data set [2] and “highly insoluble” in data set [2] (listed as ezetimibe). Besides, the “Fraction metabolised in the intestine to the glucuronide metabolite” value in data set [3] (by UGT 1A1, 1A3 and 2B15) is recorded as “Up to 80%”. Further, in data set [3] (setting [9]), the “Excreted in the faeces” value is reported as 90%. For the same compound, in data set [3] (setting [9]), the Excreted in urine is listed as 10%. Besides, the Bioavailability result in data set [4] was “poor bioavailability; also recorded: Almost negligible”; in data set [4] (listed as ezetimibe), “low bioavailability”. Moreover, in data set [5], the “Toxicity to normal human embryonic kidney cell line” value is recorded as “non-toxic; also recorded: does not exhibit toxicity”. Besides, the inhibition at 200 µM in data set [6] (Homo sapiens, A-375, A375, highest concentration, 200 μM, read-out: Inhibition of the melanoma cell line) is above 80%. Besides, in data set [6] (Homo sapiens, A-375, A375, lowest concentration tested, 1 μM, read-out: Inhibition of the melanoma cell line), the inhibition at 1 µM was around 20%. Moreover, the “Concentrations toxic to cancer cells” value in data set [6] (cancer cells (A375 and PANC-1), MTT) fell in the range of 20 to 80 µM.

In the case of `COc1cc(/C=C/C(=O)CC(=O)/C=C/c2ccc(O)c(OC)c2)ccc1O` [Curcumin], the Bioavailability result in data set [4] is listed as “Poor”; in data set [4] (listed as curcumin), “poor bioavailability; also recorded: low bioavailability”.

Regarding `COc1ccc([C@@H]2[C@@H](CCCc3ccccc3)C(=O)N2c2ccc(OC)cc2)cc1` [SCH48461], the “Inhibition of cholesterol absorption” value in data set [7] was 70%.

Regarding `COc1ccc(C2=NC(c3ccc(Cl)cc3)C(c3ccc(Cl)cc3)N2C(=O)N2CCNC(=O)C2)c(OC(C)C)c1` (stereo not shown) [nutlin-3a, 4-(4,5-bis(4-chlorophenyl)-2-(2-isopropoxy-4-methoxyphenyl)-4,5-dihydro-1H-imidazole-1-carbonyl) piperazin-2-one], the “Estimated free energy of binding, kcal/mol (Patch Dock)” value in data set [8] is recorded as −7.7+/−0.6 kcal/mol (Warner et al. 2012). Also, the Bioavailability entry in data set [4] is “poor bioavailability”.

Source of the values: US20220387383A1 (University of South Africa, priority 2019, published 2022).
